Measurements from paper PMC6703856 (Biochemistry, 2019).
Like-named read-outs stand apart in the source and are kept apart here.

What was measured:
[1] = system: NBD-labelled MBP (cysteine mutation at Ser337); assay type: binding, Escherichia coli
MBP I329W mutant = MBP I329W mutant (Escherichia coli, UniProt P0AEX9, I355W); assay: Maltose fluorescence titration, peak wavelength of tryptophan fluorescence; assay type: binding; details: I329W mutant relative to wild-type protein

Compound: OC[C@H]1O[C@H](O[C@H]2[C@H](O)[C@@H](O)C(O)O[C@@H]2CO)[C@H](O)[C@@H](O)[C@@H]1O (mixture of isomers) [maltose]
- weakening of maltose affinity by the NBD dye ([1]; monitored by NBD fluorescence intensity): 24 fold
- weakening of maltose affinity by the NBD dye ([1]; monitored by peak wavelength of tryptophan fluorescence): 5 fold
- increase in maltose binding affinity (MBP I329W mutant): 100 fold

Compound: bovine serum albumin [BSA]
- increase in maltose Kd;app ([1]; 100 g/L BSA, NBD fluorescence): 16 fold
